Results from patent US20250109127A1, “METHODS OF USE OF PHENOXYPROPYLAMINE COMPOUNDS TO TREAT DEPRESSION” (Minerva Neurosciences, Inc., priority 2013, published 2025).
Several values for one entry are separate records, joined by “and”; a condition that tells them apart may be missing. Equal entries are not always repeated. Structures can show the parent of a compound that is named as a salt.

Tested on: 5-HT release in the rat prefrontal cortex
Test: Microdialysis: 5-HT release in prefrontal cortex after I.P. administration
Type: in vivo
Conditions: for 5-HT (% of respective basal), individual animal: 0.1 mg/kg I.P., c2-c9 = R#13,14,20,19,25,26,31,32; for 5-HT (% of respective basal), individual animal / 5-HT release, individual animals: hydrochloride; for 5-HT release, MEAN / 5-HT release, individual animals: 0.3 mg/kg I.P.; for 5-HT release, MEAN / 5-HT release (% of basal levels) measured in dialysates, MEAN: n = 8; for 5-HT release, individual animals: one column per animal R#11,12,18,23,29,30,17,24; for serotonin levels, increase (not statistically significant): SON-117 0.1 mg/kg IP; for 5-HT release (% of basal levels) measured in dialysates, MEAN: SON-117 3 mg/kg IP
Description: The aim of the study was to evaluate, using microdialysis, the effects of an intraperitoneal (I.P.) administration in rats of three different doses of SON-117 on dopamine and its metabolites, serotonin and its metabolite (5-HIAA), and norepinephrine levels in prefrontal cortex.
Thirty-two adult male Wistar rats were used for the whole study (4 groups of eight animals planned for the study, Table 1).
Surgery was performed on rats weighing about 300 g at the beginning of the experiments. Rats were anaesthetized with Ketamine (50 mg/kg) & Xylazine (15 mg/kg) by intramuscular administration. The animals were placed in a stereotaxic apparatus in the flat-skull position at a constant setting of −3.3 mm between ear bars and the incisor bar. The animals were treated with a local anesthesic (xylocaine 1%, Astra Zeneca) and an analgesic (Temgesic, from Schering Plough, 0.05 mg/kg, s.c.). A rostrocaudal midline incision was made with a lancet to expose the dorsal skull surface. The “stereotaxic zero” was defined by the Bregma in accordance with Paxinos and Watson's atlas (1986). A hole was drilled in the skull with a drill and the meninges were pierced with a sterile needle to implant a CMA12 guide cannula which later received the dialysis probe.
Coordinates used for implanting guide cannula in prefrontal cortex from Bregma were anteroposterior 3.7 mm, mediolateral 0.8 mm, and dorsoventral −2 mm (top of the probe was at −5 mm). The guide cannula was fixed to the skull with two stainless steel screws (1.88 mm outside diameter) anchored. An application of dental cement was added. A plastic collar allowed each animal to be tethered to a Swivel assembly of the CMA 120 awake animal system. Following surgery, rats were kept in individual cages and allowed to recover for a minimum of 3-5 days before the experimentation. The rats were handled and put in plastic bowl for 10 min at least every day to habituate the animals to their new environment for the dialysis. An I.P. administration with saline was also performed every day.
Dialysis probes (CMA12/3 mm, membrane, 20 kD cut-off, Carnegie Medicine, Stockholm, Sweden), were carefully washed before inserting into the guide cannula. The wash was performed with the artificial cerebrospinal fluid (aCSF) medium (NaCl 147 mM, KCl 2.7 mM, CaCl2 1.2 mM, MgCl2 0.85 mM) at room temperature. The dialysis system was then equilibrated at 20° C. at a perfusion rate of 1 μl/min with a Carnegie pump (CMA100). All catheters (FEP tubing, internal volume of 1.2 μl/10 cm, and tubing adaptors) used for microdialysis were treated in the same conditions.
The probes duly prepared were inserted into the guide cannula and the CMA120 Swivel assembly secured to the animal using a plastic collar. Flow through the dialysis probe with aCSF was maintained at a rate of 1 μl/min during the whole experimentation. The first four fractions (corresponding to 2 hours) were discarded to avoid the effects of parenchymal disturbance and to ensure that an approximate steady-state level was reached. Fractions were then collected over a period of 8.5 h during which time the animals remained quiet. The dialysates were automatically collected with an autosampler (microfraction collector CMA 140, Carnegie Medicin) and stored at −80° C. until analysis. […] Perfusion was then maintained for 7 hours with aCSF. The dialysates (30 μl) were collected into 300 μl vials, transferred into dry ice and then kept frozen (−80° C.) until analysis. Frozen samples were shipped to a partner for analysis. At the end of the microdialysis study, a PBS with colored ink was perfused through the probe in order to visualize the dialyzed area.
Catecholamine assay: Concentrations of dopamine, DOPAC, HVA, 5-HIAA, 5-HT, and norepinephrin were determined for each sample by HPLC coupled with electrochemical detection. […]

## Cc1nnc(-c2cc3c(OC[C@@H](O)CN4CCC(c5ccc(Cl)c(Cl)c5)CC4)cccc3o2)o1 [SON-117, (S)-1-(4-(3,4-dichlorophenyl)piperidino)-3-(2-(5-methyl-1,3,4-oxadiazol-2-yl)benzo(b)furan-4-yloxy)-2-propanol hydrochloride]
T30-T1 h
  5-HT (% of respective basal), individual animal: 69.00 % of respective basal and 117.47 % of respective basal and 153.30 % of respective basal and 119.68 % of respective basal and 228.97 % of respective basal and 127.98 % of respective basal and 113.81 % of respective basal and 57.12 % of respective basal
  5-HT release, MEAN: 111.24 % of respective basal
  5-HT release, individual animals: 160.62 % of respective basal and 82.62 % of respective basal and 90.53 % of respective basal and 121.61 % of respective basal and 144.48 % of respective basal and 187.01 % of respective basal and 55.67 % of respective basal and 47.37 % of respective basal
  5-HT release (% of basal levels) measured in dialysates, MEAN: 122.25 % of basal levels
T1 h 30-T2 h
  5-HT (% of respective basal), individual animal: 92.30 % of respective basal and 410.73 % of respective basal and 162.34 % of respective basal and 123.16 % of respective basal and 77.29 % of respective basal and 149.14 % of respective basal and 262.61 % of respective basal and 62.56 % of respective basal
  5-HT release, MEAN: 114.14 % of respective basal
  5-HT release, individual animals: 181.24 % of respective basal and 97.85 % of respective basal and 76.79 % of respective basal and 83.68 % of respective basal and 125.63 % of respective basal and 123.37 % of respective basal and 24.18 % of respective basal and 200.38 % of respective basal
T1 h-T1 h 30
  5-HT (% of respective basal), individual animal: 84.80 % of respective basal and 173.62 % of respective basal and 140.43 % of respective basal and 113.99 % of respective basal and 98.07 % of respective basal and 572.83 % of respective basal and 162.09 % of respective basal and 62.45 % of respective basal
  5-HT release, MEAN: 144.23 % of respective basal
  5-HT release, individual animals: 149.89 % of respective basal and 128.02 % of respective basal and 96.66 % of respective basal and 76.75 % of respective basal and 140.12 % of respective basal and 235.56 % of respective basal and 63.72 % of respective basal and 263.12 % of respective basal
T2 h 30-T3 h
  5-HT (% of respective basal), individual animal: 51.79 % of respective basal and 182.3 % of respective basal and 109.29 % of respective basal and 102.05 % of respective basal and 101.27 % of respective basal and 528.93 % of respective basal and 86.68 % of respective basal and 564.06 % of respective basal
  5-HT release, MEAN: 126.37 % of respective basal
  5-HT release, individual animals: 96.77 % of respective basal and 104.38 % of respective basal and 101.02 % of respective basal and 167.96 % of respective basal and 125.41 % of respective basal and 206.04 % of respective basal and 42.18 % of respective basal and 167.18 % of respective basal
T2 h-T2 h 30
  5-HT (% of respective basal), individual animal: 82.11 % of respective basal and 59.17 % of respective basal and 129.41 % of respective basal and 112.33 % of respective basal and 523.12 % of respective basal and 458.59 % of respective basal and 127.80 % of respective basal and 1473.07 % of respective basal
  5-HT release, MEAN: 106.16 % of respective basal
  5-HT release, individual animals: 111.34 % of respective basal and 124.56 % of respective basal and 108.53 % of respective basal and 74.72 % of respective basal and 123.51 % of respective basal and 215.61 % of respective basal and 33.60 % of respective basal and 57.37 % of respective basal
T3 h 30-T4 h
  5-HT (% of respective basal), individual animal: 74.33 % of respective basal and 66.30 % of respective basal and 153.79 % of respective basal and 155.51 % of respective basal and 132.93 % of respective basal and 131.96 % of respective basal and 93.88 % of respective basal and 405.95 % of respective basal
  5-HT release, MEAN: 133.06 % of respective basal
  5-HT release, individual animals: 200.54 % of respective basal and 84.61 % of respective basal and 62.15 % of respective basal and 60.73 % of respective basal and 115.12 % of respective basal and 46.42 % of respective basal and 361.81 % of respective basal
T3 h-T3 h 30
  5-HT (% of respective basal), individual animal: 72.21 % of respective basal and 249.58 % of respective basal and 128.14 % of respective basal and 138.05 % of respective basal and 139.82 % of respective basal and 122.70 % of respective basal and 103.66 % of respective basal and 298.06 % of respective basal
  5-HT release, MEAN: 112.03 % of respective basal
  5-HT release, individual animals: 118.62 % of respective basal and 100.39 % of respective basal and 94.04 % of respective basal and 122.16 % of respective basal and 126.07 % of respective basal and 27.45 % of respective basal and 195.48 % of respective basal
T4 h 30-T5 h
  5-HT (% of respective basal), individual animal: 79.25 % of respective basal and 111.21 % of respective basal and 188.06 % of respective basal and 105.16 % of respective basal and 99.59 % of respective basal and 221.4 % of respective basal and 113.08 % of respective basal and 1455.86 % of respective basal
  5-HT release, MEAN: 105.19 % of respective basal
  5-HT release, individual animals: 144.93 % of respective basal and 86.55 % of respective basal and 70.67 % of respective basal and 69.54 % of respective basal and 82.71 % of respective basal and 313.44 % of respective basal and 18.96 % of respective basal and 54.73 % of respective basal
T4 h-T4 h 30
  5-HT (% of respective basal), individual animal: 10.23 % of respective basal and 242.01 % of respective basal and 138.36 % of respective basal and 81.92 % of respective basal and 75.44 % of respective basal and 312.84 % of respective basal and 89.43 % of respective basal and 1851.01 % of respective basal
  5-HT release, MEAN: 80.14 % of respective basal
  5-HT release, individual animals: 87.68 % of respective basal and 67.29 % of respective basal and 102.65 % of respective basal and 67.53 % of respective basal and 83.72 % of respective basal and 130.39 % of respective basal and 23.64 % of respective basal and 78.23 % of respective basal
T5 h 30-T6 h
  5-HT (% of respective basal), individual animal: 18.22 % of respective basal and 541.94 % of respective basal and 112.81 % of respective basal and 91.86 % of respective basal and 67.97 % of respective basal and 390.29 % of respective basal and 95.06 % of respective basal and 682.45 % of respective basal
  5-HT release, MEAN: 106.06 % of respective basal
  5-HT release, individual animals: 149.11 % of respective basal and 44.15 % of respective basal and 83.73 % of respective basal and 57.89 % of respective basal and 95.31 % of respective basal and 328.43 % of respective basal and 13.82 % of respective basal and 76.03 % of respective basal
T5 h-T5 h 30
  5-HT (% of respective basal), individual animal: 106.82 % of respective basal and 610.15 % of respective basal and 166.13 % of respective basal and 112.99 % of respective basal and 48.55 % of respective basal and 433.73 % of respective basal and 103.27 % of respective basal and 900.33 % of respective basal
  5-HT release, MEAN: 100.56 % of respective basal
  5-HT release, individual animals: 81.27 % of respective basal and 37.01 % of respective basal and 187.99 % of respective basal and 64.78 % of respective basal and 81.96 % of respective basal and 177.83 % of respective basal and 7.58 % of respective basal and 166.02 % of respective basal
T6 h 30-T7 h
  5-HT (% of respective basal), individual animal: 76.67 % of respective basal and 764.86 % of respective basal and 75.95 % of respective basal and 109.17 % of respective basal
  5-HT release, MEAN: 103.94 % of respective basal
  5-HT release, individual animals: 181.36 % of respective basal and 59.67 % of respective basal and 70.80 % of respective basal and 52.79 % of respective basal and 109.41 % of respective basal and 187.49 % of respective basal
T6 h-T6 h 30
  5-HT (% of respective basal), individual animal: 98.17 % of respective basal and 780.23 % of respective basal and 117.32 % of respective basal and 105.66 % of respective basal and 44.34 % of respective basal and 387.64 % of respective basal and 93.11 % of respective basal and 410.53 % of respective basal
  5-HT release, MEAN: 95.56 % of respective basal
  5-HT release, individual animals: 73.74 % of respective basal and 57.84 % of respective basal and 81.54 % of respective basal and 59.72 % of respective basal and 94.43 % of respective basal and 108.00 % of respective basal and 20.86 % of respective basal and 268.32 % of respective basal
T0-T30 min
  5-HT release, MEAN: 119.65 % of respective basal
  5-HT release (% of basal levels) measured in dialysates, MEAN: 100.79 % of basal levels
T-30 min-T0 (before administration)
  5-HT release, MEAN: 94.43 % of respective basal
T-1 h 30-T-1 h (before administration)
  5-HT release, MEAN: 100.12 % of respective basal
T-1 h-T-30 min (before administration)
  5-HT release, MEAN: 104.14 % of respective basal
At 2.5 h
  serotonin levels, increase (not statistically significant): 368%
From 4.5 h to 7 h
  serotonin levels, increase (not statistically significant): 350%
SON-117 0.1 mg/kg, at 2.5 h
  5-HT release, maximum increase observed: 369%
SON-117 0.1 mg/kg, at 2.5 h, 4.5 and 5.5 h
  levels of 5-HT compared to the citalopram treated group (significant): higher
SON-117 0.3 mg/kg IP
  5-HT dialysate levels vs mean pre-administration value: no statistically significant differences
SON-117 0.3 mg/kg, at 1 h
  levels of 5-HT compared to the citalopram treated group (significant): slightly lower
